Molecules are shown by their SMILES.

The test concerns Plasmodium falciparum. The test is described as follows: GSK_TCMDC: Inhibition of Plasmodium falciparum 3D7 in whole erythrocytes, using parasite LDH activity as an index of growth. The test is classed as functional, organism-based. The note with it: Plasmodium falciparum, 3D7.
`COc1ccc2c(N/N=C/c3ccccc3[N+](=O)[O-])cc(C)nc2c1`: the XC50 was determined as 716 nM. In the case of `O=C(Nc1n[nH]c2nc(-c3ccco3)c(Br)cc12)c1ccc(CN2CCCC2)cc1` it was 791 nM; in that of `CCN(CC)CCN(Cc1ccc(-c2ccc(C(F)(F)F)cc2)cc1)C(=O)Cn1cc(CCCCc2cccc(F)c2F)c(=O)c2ccccc21`, 883 nM; in that of `OCCNc1nc(Nc2ccccc2)nc2ccccc12`, 128 nM.

With `Cc1[nH]c2ccccc2c1C(=O)C(C)Sc1nnc(-c2ccccc2Br)[nH]1` (configuration not stated), the XC50 came out at 34.8 nM.

Take `COc1cc2c(cc1OCCN1CCC(N3CCCC3)CC1)N(C(=O)/C=C/c1ccccc1Cl)CC2`: the XC50 was 659 nM. The result for `N=c1n(Cc2ccccc2)c2ccccc2n1CC(O)c1ccc(Cl)cc1` (configuration not stated) reads 879 nM; that for `Cc1ccc(F)c(OCC2CCN(c3ncc(C(=O)NC4CC4)cc3Cl)CC2)c1`, 902 nM. Consider `O=C(/C=C/c1ccc(Cl)c(Cl)c1)NCCCCCN1CCC(CCCNC(=O)Nc2ccc(C(F)(F)F)cc2)CC1`, for which the XC50 is 872 nM. Consider `NC(=O)c1cccc(CN2Cc3ccccc3OC3(CCN(Cc4c[nH]c5cnccc45)CC3)C2)c1`, for which the XC50 was 1060 nM.

For `CC(CCc1ccccc1)NCC(O)c1ccc2c3c(cccc13)C(=O)N2C` (configuration not stated), the XC50 stood at 812 nM. In the case of `COc1cccc(COCC(O)CN(CCc2ccccn2)C(=O)c2ccccc2F)c1` (configuration not stated) it was 825 nM. In the case of `CCC(C)NC(=O)Cn1c2ncccc2c(=O)n1-c1ccc(C)cc1` (configuration not stated) it was 1260 nM; in that of `Cc1[nH]c(C)c(-c2ccc(-c3ccc(OC(F)(F)F)cc3)cc2)c(=O)c1Cl`, 35.4 nM. The result for `O=C(Nc1ccc(N2CCCCC2)c(Cl)c1)c1nc[nH]n1` reads 449 nM; that for `O=C(Nc1ccc(Cn2ncc(N3CCCNCC3)c(Cl)c2=O)cc1)Nc1ccc(C(F)(F)F)cc1`, 731 nM; that for `CCN(CC)CCCN(CCCN(CC)CC)c1cc(C)nc(Nc2ccc(Cl)cc2)n1`, 211 nM. Consider `O=C(O)C1CC(=O)N(c2ccc(Cl)cc2)C1` (configuration not stated), for which the XC50 stood at 219 nM. Consider `Cc1cccc(N2CCN(C3CCC(NC(=O)c4cc5ccccc5[nH]4)CC3)CC2)c1C` (configuration not stated), for which the XC50 stood at 609 nM.

In turn, `COC(=O)c1ccc(OCC(C)NCC(O)c2cccc(C(F)(F)F)c2)cc1` (configuration not stated) yielded an XC50 of 838 nM.

As to `COc1ccc(OCc2ccccn2)c(C2CCN(CCCCNC(=O)c3ccc(NC(=O)c4ccc(Cl)cc4)cc3)CC2)c1`, the XC50 came out at 764 nM. In the case of `CC(C)CN(C)Cc1ccc(-c2ccc(-c3nc4ccccc4[nH]3)s2)cc1` it was 752 nM.

Compound `CC(C)NCc1ccc(-c2ccc(NS(=O)(=O)c3cccc4cccnc34)cc2)cc1` had an XC50 of 807 nM.

The compound `COc1ccc(-c2cnc(N)c(-c3nc4cc(Br)ccc4[nH]3)c2)cc1` returned an XC50 of 1560 nM. The result for `O=C(Nc1ccc(-c2cccc(-c3nc4cc(F)ccc4[nH]3)c2)cc1)Nc1ccc(Cl)c(Cl)c1` reads 647 nM; that for `COc1ccc(C=NNc2cc(C)nc3ccc(OC)cc23)c(OC)c1`, 778 nM; that for `CC(=O)Nc1ccc(OCCCN(Cc2ccccc2C(F)(F)F)c2ccc(C(F)(F)F)c(C#N)c2)c(Cl)c1`, 1450 nM. The compound `Cn1nc(C(F)(F)F)c(-c2ccc(F)cc2)c1NC(=O)Nc1ccccc1` displayed an XC50 of 804 nM. The result for `CCCN1CCN(CCCCNc2c3ccccc3nc3ccccc23)CC1` reads 409 nM. In the case of `O=C(NCc1cccc(C(F)(F)F)c1)[C@@H]1CCCN1C(=O)c1ccc(O)c(-c2ccc(Cl)c(Cl)c2)c1` it was 787 nM. The result for `Cc1noc(C)c1-c1ccc(C(=C2CCCCCC2)c2ccc(O)cc2)cc1` reads 189 nM. `CC[C@H]1CN2CC[C@H]1C[C@H]2[C@H](O)c1cc(N2CCCC(C(=O)N(CC)CC)C2)nc2ccc(OC)cc12` (some centres not stated) yielded an XC50 of 73.1 nM. The result for `O=C(Nc1ccc(-c2ccc(-c3nc4cc(C(F)(F)F)ccc4[nH]3)s2)cc1)c1ccoc1` reads 854 nM; that for `O=C(CN1CCC(NCc2cnc(-c3ccc(Cl)cc3)[nH]2)CC1)N1CCc2ccccc21`, 650 nM; that for `CCOc1ccc2[nH]c(C)cc(=NN=Cc3ccccc3Cl)c2c1`, 191 nM. In turn, `CNCCNCc1cccc(-c2cccc(-c3nc4cccc(C)c4[nH]3)c2)c1` gave an XC50 of 766 nM. The result for `COc1ccccc1/C=C/C(=O)N(C)C1CCN(CCCCCNC(=O)/C=C/c2ccc(Cl)c(Cl)c2)CC1` reads 438 nM. In the case of `COc1ccccc1-c1csc(C(=O)NCC2CCN(Cc3ccc(C(C)(C)C)cc3)C2)c1` (configuration not stated) it was 1110 nM.

As to `O=C(/C=C/c1ccc(Cl)c(Cl)c1)NCCCCCN1CCC(NC(=O)Nc2ccc(Br)cc2)CC1`, the XC50 stood at 567 nM. Compound `CCOC(=O)c1c(C)n(-c2ccccc2)c2ccc(OC(=O)COc3ccc(Cl)cc3Cl)cc12` returned an XC50 of 429 nM.

For the compound `CC(=O)N1CCC(C(=O)Nc2ccc(-c3cccc(-c4nc5cccc(C)c5[nH]4)c3)cc2)CC1`, the XC50 came to 313 nM. In the case of `CC(C)CNCc1ccc(-c2cccc(CN(C(=O)NCCc3ccccc3)C3CCN(Cc4ccccc4)CC3)c2)cc1` it was 579 nM; in that of `CCc1ccc(Cc2cnc3nc(N)nc(N)c3c2C)cc1`, 202 nM. The result for `CC(C)CNCc1cccc(-c2ccc(CN(CCCN3CCN(C)CC3)C(=O)/C=C/c3ccccc3)cc2)c1` reads 857 nM; that for `Cc1cc(OCC2CCCN(c3ncc(C(=O)NC4CC4)cc3Cl)C2)ccc1F` (configuration not stated), 1490 nM. Take `CCOc1c(Cl)cc(Cl)cc1CNCCCNc1nc2ccccc2[nH]1`: the XC50 amounted to 831 nM. `CCN(CC)CCCOC(=O)c1ccc2c(c1)-c1ccc(C(=O)OCCCN(CC)CC)c3cccc-2c13` returned an XC50 of 933 nM. `O=C(Nc1ccc(Br)cc1)c1cc(Br)ccc1NS(=O)(=O)c1ccc(C(F)(F)F)cc1`: the XC50 turned out to be 180 nM.

The compound `Cc1cc(O)c(-c2cc(C(=O)Nc3cccnc3)[nH]n2)cc1C` came in with an XC50 of 772 nM. For the compound `COc1cccc(-c2cnc(N)c(-c3nc4ccc(C(F)(F)F)cc4[nH]3)c2)c1`, the XC50 was 652 nM. For `O=C(C=Cc1cccs1)N(CCCn1ccnc1)c1nc2ccc(F)cc2s1`, the XC50 is 1600 nM. In the case of `CCC(C)c1cccc(C(C)CC)c1OCCCON1C(N)=NC(N)=NC1(C)C` (configuration not stated) it was 20 nM; in that of `CC1(C)[C@H]2CC[C@@H](CNc3nc(NCCc4c[nH]cn4)nc(NCc4cc(F)ccc4F)n3)[C@@H]1C2`, 311 nM.

For `Cc1nnsc1C(=O)Nc1cccc(-c2ccc(-c3nc4cc(F)ccc4[nH]3)cc2)c1`, the XC50 came out at 96.2 nM.

`COc1cccc(NC(=O)Nc2cc(-c3ccc4[nH]ncc4c3)cc3c2CNC3=O)c1` came in with an XC50 of 117 nM. `CN1CCC(NCc2ccc(-c3ccc(S(=O)(=O)NCc4ccccc4)cc3)cc2)CC1` returned an XC50 of 832 nM. Compound `COc1ccc2nccc([C@@H](O)CN3CCC(NCCOc4cccc(C(F)(F)F)c4)CC3)c2c1` registered an XC50 of 159 nM. In the case of `COc1cccc(C(O)CNc2ccnc(Nc3cccc(-c4csc(C)n4)c3)n2)c1` (configuration not stated) it was 786 nM; in that of `O=C(N[C@@H](Cc1ccccc1)C(=O)NCCN1CCCCC1)c1ccc(O)c(-c2ccc(Cl)c(Cl)c2)c1`, 1520 nM; in that of `CC(C)(C)c1ccc(CN2CCC(NC(=O)c3ccc(-c4cccc(Cl)c4)s3)CC2)cc1`, 1070 nM. The result for `CC(C)c1ccc(Cn2cc(-c3ccncc3)c3cc(OCc4ccccc4)ccc32)cc1` reads 706 nM. In the case of `CCc1c(C)nc(-n2nc(C)cc2NC(=O)CCc2ccccc2)[nH]c1=O` it was 752 nM; in that of `C=C1C[C@@H](n2cnc3c(NC(=O)c4ccccc4)ncnc32)[C@@H](F)[C@@H]1OC(c1ccccc1)(c1ccccc1)c1ccccc1`, 145 nM.

`CCOC(=O)CNC(=O)N1CCN(C(=O)NCC(=O)OCC)CC1` gave an XC50 of 848 nM. In the case of `O=[N+]([O-])c1ccc(-n2nc(Cc3ccccc3)n(Cc3cccc(F)c3)c2=S)c(C(F)(F)F)c1` it was 769 nM; in that of `COc1ccc(NC(=O)c2ccc3[nH]c(-c4ccc(Cl)cc4)cc3c2)cc1OCCN(C)C`, 813 nM. In the case of `Cc1cc(=NN=Cc2ccccc2Cl)c2ccc(F)cc2[nH]1` it was 257 nM; in that of `O=C(Nc1ccc(CN2CCOCC2)cc1)c1ccc(-c2ccc(Br)cc2)o1`, 1120 nM. The result for `COc1nc(N)ncc1C(=O)NC1CN2CCC1CC2` (configuration not stated) reads 235 nM.

In the case of `CCCCCCCSc1ccc(CC(C)NCC(O)c2cccc(Cl)c2)cc1` (configuration not stated), the XC50 was determined as 178 nM. In the case of `COc1cccc2cc(C(=O)N[C@@H](CC(C)C)C(=O)N[C@H](/C=N/NC(=O)N3CCN(C)CC3)CCc3ccccc3)oc12` it was 616 nM; in that of `CCOc1cc(OCC)c2ccccc2c1CNCCCCCCNCc1c(OCC)cc(OCC)c2ccccc12`, 305 nM; in that of `COc1ccc(C(=O)C2CC2CN2CC=C(c3c[nH]c4cccc(Br)c34)CC2)cc1` (configuration not stated), 935 nM. In the case of `Clc1ccc(CNc2nc(NCCc3c[nH]cn3)nc(NC3CCCCC3)n2)cc1` it was 209 nM; in that of `O=C(Nc1cccc(CN2CCCN(Cc3cccnc3)CC2)c1)c1ccc(Cl)c(Cl)c1`, 928 nM; in that of `O=c1cc(NCCCNCc2cc3ccccc3s2)[nH]c2ccccc12`, 1270 nM. The result for `N#Cc1cnc(Nc2ccc(Oc3ccccc3)cc2)nc1Nc1cccc(S(N)(=O)=O)c1` reads 555 nM; that for `COCCNCc1ccc(-c2ccccc2CNC2CCN(Cc3ccccc3)CC2)cc1`, 975 nM. As for `Cc1[nH]c2c(C)cccc2c1C1CCN(CCC2CCN(C(=O)/C=C/c3ccc(Cl)c(Cl)c3)CC2)CC1`, the XC50 stood at 636 nM. In the case of `CN(CC(=O)Nc1ccc(F)cc1)C(=O)c1ccc(-c2ccc(F)cc2)o1`, the XC50 came out at 934 nM. In the case of `OCC1CCN(Cc2ccc(-c3cccc(-c4nc5cc(C(F)(F)F)ccc5[nH]4)c3)cc2)CC1` it was 483 nM; in that of `COc1ccc(-c2cnc(N)nc2N)cc1Cl`, 1400 nM. The result for `O=C(NCCC1CCN(CCc2c[nH]c3ccccc23)CC1)Nc1ccc(Cl)c(Cl)c1` reads 834 nM. As to `CN(C)c1ccc(-c2csc(C(=O)NCC3CCN(CC4CCCCC4)C3)c2)cc1` (configuration not stated), the XC50 came out at 1140 nM. Consider `CCN(CCCN1CCCCC1)c1cc(C)nc(Nc2ccc(Oc3ccccc3)cc2)n1`, for which the XC50 was determined as 298 nM. The result for `COc1ccc(C=CC(=O)N2CCC(CN3CCC(c4c[nH]c5ccccc45)CC3)CC2)cc1OC` reads 1070 nM. The result for `COc1ccc(CCC(C)N2CC(N)C(c3cn(C)c4cnccc34)C2)cc1` (configuration not stated) reads 1360 nM.

(Values after ChEMBL document CHEMBL1157539, “Thousands of chemical starting points for antimalarial lead identification” (Nature, 2010).)
